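Compound exposure: 48 hours, 5 concentrations, 96-well plates. GI50 is the concentration that inhibits growth by half. TGI: concentration producing complete growth inhibition.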
Legend:
Experiment in all cases: NCI tumour cell line growth inhibition, 48 h
[1] = tested on: SF-539 CNS
[2] = tested on: SK-MEL-5 melanoma
[3] = tested on: IGROV1 ovarian
[4] = tested on: SR leukemia
[5] = tested on: HL-60(TB) leukemia
[6] = tested on: UACC-62 melanoma
[7] = tested on: UO-31 renal
[8] = tested on: RXF 393 renal
[9] = tested on: OVCAR-3 ovarian
[10] = tested on: SK-OV-3 ovarian

Structure (SMILES): C=CCSc1n[nH]c(-c2cccs2)n1
- GI50 [1]: > 100 µM
- TGI [1]: > 100 µM
- GI50 [2]: > 100 µM
- TGI [2]: > 100 µM
- GI50 [3]: > 100 µM
- TGI [3]: > 100 µM
- GI50 [4]: > 100 µM
- TGI [4]: > 100 µM
- GI50 [5]: > 100 µM
- TGI [5]: > 100 µM
- GI50 [6]: > 100 µM
- TGI [6]: > 100 µM
- GI50 [7]: > 100 µM
- TGI [7]: > 100 µM
- GI50 [8]: > 100 µM
- TGI [8]: > 100 µM
- GI50 [9]: > 100 µM
- TGI [9]: > 100 µM
- GI50 [10]: > 100 µM
- TGI [10]: > 100 µM

Structure (SMILES): C=C1CC2(OC1=O)c1ccccc1CCc1ccccc12
- TGI [1]: 4.06 µM
- TGI [2]: 28 µM
- TGI [3]: 14.1 µM
- TGI [4]: 2.3 µM
- TGI [5]: 3.26 µM
- TGI [6]: 15.9 µM
- TGI [7]: 20.6 µM
- TGI [8]: 3.07 µM
- TGI [9]: 3.74 µM
- TGI [10]: 31.9 µM

Structure (SMILES): CC1CC(=O)C(C(O)CC2CC(=O)N(c3ccccc3)C(=O)C2)C(C)C1 (configuration not stated)
- TGI [1]: > 100 µM
- TGI [3]: > 100 µM
- TGI [4]: > 100 µM
- TGI [5]: > 100 µM
- TGI [6]: > 100 µM
- TGI [7]: > 100 µM
- TGI [8]: > 100 µM
- TGI [9]: > 100 µM
- TGI [10]: > 100 µM

Structure (SMILES): Cc1cccc(NC(=O)CC2C(=O)Nc3ccccc3S2(=O)=O)c1C (configuration not stated)
- TGI [1]: 37.6 µM
- TGI [2]: 74.1 µM
- TGI [3]: 60 µM
- TGI [4]: 48 µM
- TGI [5]: > 100 µM
- TGI [6]: 46.3 µM
- TGI [7]: 50.5 µM
- TGI [8]: 34.3 µM
- TGI [9]: 61.2 µM
- TGI [10]: 37.7 µM

Structure (SMILES): Nc1cc(C(F)F)c(-c2nc(N3[C@@H]4CC[C@H]3COC4)nc(N3[C@@H]4CC[C@H]3COC4)n2)cn1
- GI50 [1]: 0.297 µM
- TGI [1]: 3.02 µM
- GI50 [2]: 0.407 µM
- TGI [2]: 4.48 µM
- GI50 [3]: 0.146 µM
- TGI [3]: 1.54 µM
- GI50 [4]: 0.191 µM
- TGI [4]: 21 µM
- GI50 [5]: 2.29 µM
- TGI [5]: > 100 µM
- GI50 [6]: 0.212 µM
- TGI [6]: 2.2 µM
- GI50 [7]: 0.119 µM
- TGI [7]: 6.85 µM
- GI50 [8]: 0.18 µM
- TGI [8]: 0.816 µM
- GI50 [9]: 0.435 µM
- TGI [9]: > 100 µM
- GI50 [10]: 0.145 µM
- TGI [10]: 0.769 µM

Structure (SMILES): COc1ccc2[nH]cc(/C=C3\C(=O)Nc4ccccc43)c2c1
- GI50 [1]: 5.43 µM
- TGI [1]: 18.1 µM
- GI50 [2]: 3.43 µM
- TGI [2]: 15.2 µM
- GI50 [3]: 2.82 µM
- TGI [3]: 16.8 µM
- GI50 [4]: 1.96 µM
- TGI [4]: 5.2 µM
- GI50 [5]: 1.78 µM
- TGI [5]: 4.26 µM
- GI50 [6]: 4.09 µM
- TGI [6]: 20.6 µM
- GI50 [7]: 6.94 µM
- TGI [7]: 32.4 µM
- GI50 [8]: 2.95 µM
- TGI [8]: 13.3 µM
- GI50 [9]: 9.62 µM
- TGI [9]: 35.9 µM
- GI50 [10]: 4.75 µM
- TGI [10]: 21.5 µM

Structure (SMILES): CCOC(=O)C(=Cc1ccc(Br)cc1)C(=O)OCC
- GI50 [1]: 1.72 µM
- TGI [1]: 3.13 µM
- GI50 [2]: 1.65 µM
- TGI [2]: 3.12 µM
- GI50 [3]: 1.81 µM
- TGI [3]: 3.94 µM
- GI50 [4]: 2.41 µM
- TGI [4]: > 23.1 µM
- GI50 [5]: 1.63 µM
- TGI [5]: 7.53 µM
- GI50 [6]: 1.39 µM
- TGI [6]: 3.29 µM
- GI50 [7]: 1.57 µM
- TGI [7]: 3.34 µM
- GI50 [8]: 1.15 µM
- TGI [8]: 2.55 µM
- GI50 [9]: 1.47 µM
- TGI [9]: 2.92 µM
- GI50 [10]: 5.41 µM
- TGI [10]: 17 µM

Structure (SMILES): C=C(C)C1CC[C@]2(C(=O)O)CCC3(C)[C@H](CCC4[C@@]5(C)CC[C@H](OC6OC(CO)C(O)C6OC6OC(C)C(O)C(O)C6O)[C@@](C)(CO)C5CC[C@]43C)C12 (some centres not stated)
- TGI [1]: > 100 µM
- TGI [2]: > 100 µM
- TGI [3]: > 100 µM
- TGI [4]: > 100 µM
- TGI [5]: > 100 µM
- TGI [6]: > 100 µM
- TGI [7]: > 100 µM
- TGI [8]: > 100 µM
- TGI [9]: > 100 µM

Structure (SMILES): NC(C(=O)O)C(N)C(=O)O (configuration not stated)
- TGI [1]: > 100 µM
- TGI [2]: > 100 µM
- TGI [3]: > 100 µM
- TGI [4]: > 100 µM
- TGI [5]: > 100 µM
- TGI [6]: > 100 µM
- TGI [7]: > 100 µM
- TGI [8]: > 100 µM
- TGI [9]: > 100 µM
- TGI [10]: > 100 µM

Structure (SMILES): O=[N+]([O-])c1ccc2nc(N/N=C/c3ccc(O)cc3)sc2c1
- GI50 [1]: 3.2 µM
- TGI [1]: > 100 µM
- GI50 [2]: 2.88 µM
- TGI [2]: 11.1 µM
- GI50 [3]: 3.84 µM
- TGI [3]: > 100 µM
- GI50 [4]: 3.07 µM
- TGI [4]: 20.7 µM
- GI50 [5]: 3.6 µM
- TGI [5]: 10.6 µM
- GI50 [6]: 4.46 µM
- TGI [6]: 37 µM
- GI50 [7]: 8.22 µM
- TGI [7]: > 100 µM
- GI50 [8]: 10.9 µM
- TGI [8]: 66.9 µM
- GI50 [9]: 3.4 µM
- TGI [9]: 14.6 µM
- GI50 [10]: 5.37 µM
- TGI [10]: 48.9 µM

Structure (SMILES): CSc1s[s+]c(SC)c1[O-]
- TGI [1]: 43.2 µM
- TGI [2]: > 100 µM
- TGI [3]: > 100 µM
- TGI [4]: 37 µM
- TGI [5]: 47.1 µM
- TGI [6]: 28.2 µM
- TGI [7]: > 100 µM
- TGI [8]: 41.4 µM
- TGI [9]: 67.2 µM
- TGI [10]: > 100 µM

Structure (SMILES): CS(=O)(=O)c1ccc(C(F)(F)F)cc1NC(=O)Nc1cnc(Oc2ccc(-c3cc(Cl)cnc3N)cc2)nc1
- GI50 [1]: 1.94 µM
- TGI [1]: 4.96 µM
- GI50 [2]: 1.87 µM
- TGI [2]: 3.87 µM
- GI50 [3]: 1.73 µM
- TGI [3]: 6.04 µM
- GI50 [4]: 1.98 µM
- TGI [4]: 4.66 µM
- GI50 [5]: 2.63 µM
- TGI [5]: 5.75 µM
- GI50 [6]: 1.82 µM
- TGI [6]: 4.72 µM
- GI50 [7]: 1.86 µM
- TGI [7]: 6.72 µM
- GI50 [8]: 1.79 µM
- TGI [8]: 4.61 µM
- GI50 [9]: 2.08 µM
- TGI [9]: 4.67 µM
- GI50 [10]: 3.31 µM
- TGI [10]: 18 µM

Structure (SMILES): O=[N+]([O-])c1ccc(N(CCO)CCO)c2c1no[n+]2[O-]
- GI50 [1]: 1.26 µM
- TGI [1]: 2.77 µM
- GI50 [2]: 1.09 µM
- TGI [2]: 2.31 µM
- GI50 [3]: 1.75 µM
- TGI [3]: 7.42 µM
- GI50 [4]: 0.215 µM
- TGI [4]: 0.899 µM
- GI50 [5]: 0.759 µM
- TGI [5]: 3.57 µM
- GI50 [6]: 1.24 µM
- TGI [6]: 3.56 µM
- GI50 [7]: 2.01 µM
- TGI [7]: 8.65 µM
- GI50 [8]: 1.32 µM
- TGI [8]: 4.84 µM
- GI50 [9]: 1.51 µM
- TGI [9]: 3.91 µM
- GI50 [10]: 1.21 µM
- TGI [10]: 4.14 µM

Structure (SMILES): C/C=C/C=C/[C@H]1Cc2cc(O)cc(O)c2O1
- TGI [1]: > 100 µM
- TGI [2]: > 100 µM
- TGI [3]: > 100 µM
- TGI [4]: > 100 µM
- TGI [5]: 92.8 µM
- TGI [6]: > 100 µM
- TGI [7]: > 100 µM
- TGI [8]: > 100 µM
- TGI [9]: > 100 µM
- TGI [10]: > 100 µM

Structure (SMILES): CN(C)CCCC1(c2ccc(F)cc2)OCc2cc(-c3ccc4cc[nH]c4c3)ccc21 (configuration not stated)
- GI50 [1]: 1.78 µM
- TGI [1]: 3.23 µM
- GI50 [2]: 1.81 µM
- TGI [2]: 3.25 µM
- GI50 [3]: 1.73 µM
- TGI [3]: 3.61 µM
- GI50 [4]: 2.41 µM
- TGI [4]: 5.41 µM
- GI50 [5]: 1.74 µM
- TGI [5]: 3.77 µM
- GI50 [6]: 1.85 µM
- TGI [6]: 3.77 µM
- GI50 [7]: 1.45 µM
- TGI [7]: 2.82 µM
- GI50 [8]: 2.48 µM
- TGI [8]: 7.56 µM
- GI50 [9]: 1.74 µM
- TGI [9]: 3.35 µM
- GI50 [10]: 3.38 µM
- TGI [10]: 12.9 µM

Structure (SMILES): N#Cc1ccc(-n2cnc(NC(=O)[C@H]3CCN(C#N)C3)c2)cc1
- GI50 [1]: 1.18 µM
- TGI [1]: 5.95 µM
- GI50 [2]: 2.08 µM
- TGI [2]: 6.13 µM
- GI50 [3]: 2.01 µM
- TGI [3]: > 100 µM
- GI50 [4]: 0.375 µM
- TGI [4]: > 100 µM
- GI50 [5]: 0.51 µM
- TGI [5]: 2.86 µM
- GI50 [6]: 0.892 µM
- TGI [6]: 4.47 µM
- GI50 [7]: 0.546 µM
- TGI [7]: 4 µM
- GI50 [8]: 0.374 µM
- TGI [8]: 2.6 µM
- TGI [9]: 4.84 µM
- GI50 [10]: 3.77 µM
- TGI [10]: > 51.4 µM

— PubChem BioAssay (NCI)
